In PubChem BioAssay AID1919003 (Molecular Pharmacology Branch, DTP, NCI, 2023):
Where “and” joins values, the source holds several entries; their conditions need not be identical. Equal entries are not always repeated.

System: 786-0 complex spheroids with HUVEC/MSC, growth % test/control
Assay: Anticancer human tumor 786-0 cell line growth inhibition [AhR];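 note: compound exposure lasted seven days before the read-out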
Details: for viability, T/C: stronger effect = lower value
Outline: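 Complex tumor spheroids co-cultured with HUVEC and human MSC stroma; AhR antagonists tested in combination with standard-of-care and investigational agents. Top concentration at or near clinical Cmax (else 10 microM), half-log dilutions; growth expressed as percent test/control.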

[1] = curve of first compound, second compound 0.1 µM
[2] = curve of first compound, second compound 0.316 µM
[3] = curve of first compound, second compound 1 µM
[4] = curve of first compound, second compound 3.16 µM
[5] = curve of first compound, second compound 10 µM
[6] = second compound 0.1 µM, first compound 0.0316 µM
[7] = second compound 0.1 µM, first compound 0.1 µM
[8] = second compound 0.1 µM, first compound 0.316 µM
[9] = second compound 0.1 µM, first compound 1 µM
[10] = second compound 0.1 µM, first compound 3.16 µM
[11] = second compound 0.1 µM, first compound 10 µM
[12] = second compound 0.316 µM, first compound 0.0316 µM
[13] = second compound 0.316 µM, first compound 0.1 µM
[14] = second compound 0.316 µM, first compound 0.316 µM
[15] = second compound 0.316 µM, first compound 1 µM
[16] = second compound 0.316 µM, first compound 3.16 µM
[17] = second compound 0.316 µM, first compound 10 µM
[18] = second compound 1 µM, first compound 0.0316 µM
[19] = second compound 1 µM, first compound 0.1 µM
[20] = second compound 1 µM, first compound 0.316 µM
[21] = second compound 1 µM, first compound 1 µM
[22] = second compound 1 µM, first compound 3.16 µM
[23] = second compound 1 µM, first compound 10 µM
[24] = second compound 3.16 µM, first compound 0.0316 µM
[25] = second compound 3.16 µM, first compound 0.1 µM
[26] = second compound 3.16 µM, first compound 0.316 µM
[27] = second compound 3.16 µM, first compound 1 µM
[28] = second compound 3.16 µM, first compound 3.16 µM
[29] = second compound 3.16 µM, first compound 10 µM
[30] = second compound 10 µM, first compound 0.0316 µM
[31] = second compound 10 µM, first compound 0.1 µM
[32] = second compound 10 µM, first compound 0.316 µM
[33] = second compound 10 µM, first compound 1 µM
[34] = second compound 10 µM, first compound 3.16 µM
[35] = second compound 10 µM, first compound 10 µM

O=C(C=Cc1cccc(S(=O)(=O)Nc2ccccc2)c1)NO + Cc1cncc(-c2nc(NCCc3c[nH]c4ccccc34)c3ncn(C(C)C)c3n2)c1 was tested, and the IC50 [1] was 7.06 µM, the IC50 [2] was 7.68 µM and the IC50 [3] was 6.53 µM. For the same compound, the IC50 [4] was 1.6 µM, the IC50 [5] was < 0.0316 µM and the viability, T/C [6] was 120%. For the same compound, the viability, T/C [7] was 113%, the viability, T/C [8] was 112% and the viability, T/C [9] was 119%. For the same compound, the viability, T/C [10] was 103%, the viability, T/C [11] was 26.5% and the viability, T/C [12] was 113%. The viability, T/C [13] was 118%, the viability, T/C [14] was 113% and the viability, T/C [15] was 113%. For the same compound, the viability, T/C [16] was 112%, the viability, T/C [17] was 31.4% and the viability, T/C [18] was 113%. The viability, T/C [19] was 111%, the viability, T/C [20] was 106% and the viability, T/C [21] was 106%. The viability, T/C [22] was 96.7%, the viability, T/C [23] was 22.4% and the viability, T/C [24] was 69.2%. The viability, T/C [25] was 68.2%, the viability, T/C [26] was 59.4% and the viability, T/C [27] was 53.7%. It also gave a viability, T/C [28] of 45%, a viability, T/C [29] of 11.8% and a viability, T/C [30] of 13.8%. For the same compound, the viability, T/C [31] was 8.02%, the viability, T/C [32] was 5.17% and the viability, T/C [33] was 0.6%. For the same compound, the viability, T/C [34] was 2.92% and the viability, T/C [35] was 1.45%.

For Nc1ccn(C2OC(CO)C(O)C2(F)F)c(=O)n1 (configuration not stated) + Cc1cncc(-c2nc(NCCc3c[nH]c4ccccc34)c3ncn(C(C)C)c3n2)c1, the IC50 [1] was < 0.0316 µM, the IC50 [2] was < 0.0316 µM and the IC50 [3] was < 0.0316 µM. The IC50 [4] was < 0.0316 µM, the IC50 [5] was < 0.0316 µM and the viability, T/C [6] was 6.61%. For the same compound, the viability, T/C [7] was 6.32%, the viability, T/C [8] was 4.8% and the viability, T/C [9] was 5.2%. The viability, T/C [10] was 8.48%, the viability, T/C [11] was 7.97% and the viability, T/C [12] was 7.89%. The viability, T/C [13] was 7.93%, the viability, T/C [14] was 6.11% and the viability, T/C [15] was 6.04%. For the same compound, the viability, T/C [16] was 7.74%, the viability, T/C [17] was 6.69% and the viability, T/C [18] was 6.44%. The viability, T/C [19] was 6.22%, the viability, T/C [20] was 6.31% and the viability, T/C [21] was 5.01%. It also gave a viability, T/C [22] of 6.11%, a viability, T/C [23] of 5.37% and a viability, T/C [24] of 2.07%. The viability, T/C [25] was 1.87%, the viability, T/C [26] was 3.18% and the viability, T/C [27] was 1.68%. The viability, T/C [28] was 3.27%, the viability, T/C [29] was 7.69% and the viability, T/C [30] was 0.4%. For the same compound, the viability, T/C [31] was 0.29%, the viability, T/C [32] was 0.24% and the viability, T/C [33] was 0.33%. The viability, T/C [34] was 0.61% and the viability, T/C [35] was 0.37%.

With O=C(c1cc(Cc2n[nH]c(=O)c3ccccc23)ccc1F)N1CCN(C(=O)C2CC2)CC1 the viability, T/C (compound 0.0316 µM) was 111% and 97.5% and 96.3%, the viability, T/C (compound 0.1 µM) was 104% and 99.7% and 103% and the viability, T/C (compound 0.316 µM) was 112% and 103% and 102%. For the same compound, the viability, T/C (compound 1 µM) was 108% and 109% and 104%, the viability, T/C (compound 3.16 µM) was 109% and 107% and 104% and the viability, T/C (compound 10 µM) was 107% and 98% and 91.6%. The IC50 (curve of compound) was > 10 µM.

CCc1c2c(nc3ccc(O)cc13)-c1cc3c(c(=O)n1C2)COC(=O)[C@]3(O)CC + Cc1ccccc1N=Nc1ccc(NC(=O)c2ccnn2C)c(C)c1 gave an IC50 [1] of 0.0061 µM, an IC50 [2] of 0.00633 µM and an IC50 [3] of 0.00639 µM. It also gave an IC50 [4] of 0.0061 µM, an IC50 [5] of 0.00518 µM and a viability, T/C (second compound 0.1 µM, first compound 0.000949 µM) of 106%. The viability, T/C (second compound 0.1 µM, first compound 0.003 µM) was 96.2%, the viability, T/C (second compound 0.1 µM, first compound 0.00949 µM) was 21.1% and the viability, T/C (second compound 0.1 µM, first compound 0.03 µM) was 9.38%. The viability, T/C (second compound 0.1 µM, first compound 0.0949 µM) was 3.43%, the viability, T/C (second compound 0.1 µM, first compound 0.3 µM) was 4.01% and the viability, T/C (second compound 0.316 µM, first compound 0.000949 µM) was 107%. The viability, T/C (second compound 0.316 µM, first compound 0.003 µM) was 106%, the viability, T/C (second compound 0.316 µM, first compound 0.00949 µM) was 19.7% and the viability, T/C (second compound 0.316 µM, first compound 0.03 µM) was 9.77%. For the same compound, the viability, T/C (second compound 0.316 µM, first compound 0.0949 µM) was 4.26%, the viability, T/C (second compound 0.316 µM, first compound 0.3 µM) was 3.54% and the viability, T/C (second compound 1 µM, first compound 0.000949 µM) was 101%. It also gave a viability, T/C (second compound 1 µM, first compound 0.003 µM) of 102%, a viability, T/C (second compound 1 µM, first compound 0.00949 µM) of 22.9% and a viability, T/C (second compound 1 µM, first compound 0.03 µM) of 10.2%. For the same compound, the viability, T/C (second compound 1 µM, first compound 0.0949 µM) was 4.47%, the viability, T/C (second compound 1 µM, first compound 0.3 µM) was 2.91% and the viability, T/C (second compound 3.16 µM, first compound 0.000949 µM) was 98.1%. It also gave a viability, T/C (second compound 3.16 µM, first compound 0.003 µM) of 95.6%, a viability, T/C (second compound 3.16 µM, first compound 0.00949 µM) of 21.6% and a viability, T/C (second compound 3.16 µM, first compound 0.03 µM) of 8.98%. The viability, T/C (second compound 3.16 µM, first compound 0.0949 µM) was 4.32%, the viability, T/C (second compound 3.16 µM, first compound 0.3 µM) was 3.54% and the viability, T/C (second compound 10 µM, first compound 0.000949 µM) was 89.7%. For the same compound, the viability, T/C (second compound 10 µM, first compound 0.003 µM) was 78.8%, the viability, T/C (second compound 10 µM, first compound 0.00949 µM) was 18.1% and the viability, T/C (second compound 10 µM, first compound 0.03 µM) was 8.91%. For the same compound, the viability, T/C (second compound 10 µM, first compound 0.0949 µM) was 4.41% and the viability, T/C (second compound 10 µM, first compound 0.3 µM) was 3.24%.

O=C(C=Cc1cccc(S(=O)(=O)Nc2ccccc2)c1)NO + Cc1ccccc1N=Nc1ccc(NC(=O)c2ccnn2C)c(C)c1 gave an IC50 [1] of 6.06 µM, an IC50 [2] of 6.08 µM and an IC50 [3] of 6.3 µM. For the same compound, the IC50 [4] was 5.7 µM, the IC50 [5] was 4.61 µM and the viability, T/C [6] was 89.2%. It also gave a viability, T/C [7] of 103%, a viability, T/C [8] of 88.4% and a viability, T/C [9] of 94.3%. For the same compound, the viability, T/C [10] was 87.7%, the viability, T/C [11] was 20.9% and the viability, T/C [12] was 100%. For the same compound, the viability, T/C [13] was 97.1%, the viability, T/C [14] was 101% and the viability, T/C [15] was 101%. For the same compound, the viability, T/C [16] was 86.4%, the viability, T/C [17] was 22.1% and the viability, T/C [18] was 98.2%. The viability, T/C [19] was 100%, the viability, T/C [20] was 106% and the viability, T/C [21] was 93.5%. The viability, T/C [22] was 90.7%, the viability, T/C [23] was 22.5% and the viability, T/C [24] was 85%. It also gave a viability, T/C [25] of 91.4%, a viability, T/C [26] of 85.8% and a viability, T/C [27] of 81.9%. It also gave a viability, T/C [28] of 80%, a viability, T/C [29] of 21.4% and a viability, T/C [30] of 93.5%. It also gave a viability, T/C [31] of 87.2%, a viability, T/C [32] of 85.9% and a viability, T/C [33] of 85.5%. The viability, T/C [34] was 67.3% and the viability, T/C [35] was 14.2%.

In the case of COc1ccc([C@@H](O)c2cc(-c3ncnc4cc(N5CCOCC5)ccc34)c(F)cc2Cl)nn1 + CC(CO)NC(=O)c1cc(-c2ccc(Cl)cc2)nn(-c2cnn(C)c2)c1=O, the IC50 [1] is reported as > 10 µM, the IC50 [2] is reported as > 10 µM and the IC50 [3] is reported as > 10 µM. For the same compound, the IC50 [4] was > 10 µM, the IC50 [5] was > 10 µM and the viability, T/C [6] was 99.5%. For the same compound, the viability, T/C [7] was 109%, the viability, T/C [8] was 111% and the viability, T/C [9] was 115%. It also gave a viability, T/C [10] of 117%, a viability, T/C [11] of 85.2% and a viability, T/C [12] of 102%. For the same compound, the viability, T/C [13] was 107%, the viability, T/C [14] was 118% and the viability, T/C [15] was 106%. For the same compound, the viability, T/C [16] was 108%, the viability, T/C [17] was 91.2% and the viability, T/C [18] was 110%. The viability, T/C [19] was 114%, the viability, T/C [20] was 110% and the viability, T/C [21] was 113%. It also gave a viability, T/C [22] of 114%, a viability, T/C [23] of 91.6% and a viability, T/C [24] of 102%. It also gave a viability, T/C [25] of 112%, a viability, T/C [26] of 114% and a viability, T/C [27] of 111%. For the same compound, the viability, T/C [28] was 107%, the viability, T/C [29] was 83.2% and the viability, T/C [30] was 117%. It also gave a viability, T/C [31] of 122%, a viability, T/C [32] of 115% and a viability, T/C [33] of 115%. For the same compound, the viability, T/C [34] was 100% and the viability, T/C [35] was 78%.
